The target in test [1] is T1, DGK ζ kinase (Homo sapiens, UniProt Q13574).
T1 construct: purchased Reaction Biology Corp. (contract assay service)
As to the kind of experiment: DGKzeta kinase ADP Glo assay run by Reaction Biology Corp. Format: biochemical. To be noted: 2 nM kinase, 50 µM ATP, 500 μM DLG, 10-dose duplicate. How it is done: (§1) DGK α and ζ kinases use ATP to phosphorylate the substrate 1,2-dilauroyl-sn-glycerol (DLG). ATP is converted to ADP as a result of this enzymatic reaction.
(§2) After the kinase reaction, an ATP-depletion reagent is added to terminate the kinase reaction and deplete any remaining ATP, leaving only ADP. Second, a detection reagent is added to simultaneously convert ADP to ATP and allow the newly synthesized ATP to be converted to light using a coupled luciferase/luciferin reaction.
(§3) DGK α and ζ kinase ADP Glo assays were ran by Reaction Biology Corp., 1 Great Valley Parkway, Suite 2, Malvern, 19355, PA, USA. Information provided by the service provider are the following: DGK α and ζ kinases were used at 2 nM final concentration. Reactions were carried out at 50 µM ATP. 500 μM of the substrate DLG (Dilauroyl-sn-glycerol) was used.
A general note: ADP-Glo turns the ADP formed in a reaction into a luminescent signal.

Test [2] concerns primary human T-cells. As to the kind of experiment: Proliferation assay (5 days, CellTiter-Glo, CD3-stimulated T-cells). It counts as cell-based. To be noted: for Emax proliferation (% activation): CD3 condition, normalised to DMSO (neutral) and 20 μM reference compound A1 = 100%; for EC50: Homo sapiens, T-cell, 120 h, CD3-stimulated primary human T-cells, 5 days, CellTiter-Glo, fitted sigmoidal curve, read-out: Tcell Proliferation CD3 EC50. A digest of the protocol: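 Proliferation read-out: ATP luminescence (CellTiter-Glo 2.0) at day 5 in expanded primary human T-cells on CD3 antibody-coated plates, with PBS-only plates as a counter screen. Compounds in 5–6 pt series (factor 3.333, top 20 or 10 μM final). Values are normalized to DMSO (neutral) and 20 μM reference A1 (100%), from sigmoidal fits.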
A general note: ATP-based viability assays read luminescence as a measure of living cells.

For test [3], the target named is T2, DGKα (hDGKalpha(1-735)-N-His) (Homo sapiens, UniProt P23743).
T2 construct: hDGKalpha(1-735)-N-His; His (N); made in house; host or cells: Sf21 insect cells (baculovirus)
The experiment in a line: In vitro DGK inhibition assay, DGKalpha ADP Glo (in house). Format: biochemical. Particulars: 4 nM DGKα, 25 μM ATP, 125 uM DLG in liposomes, 1 hour reaction. The method, then:
(§4) DGKα and ζ kinases use ATP to phosphorylate the substrate 1,2-dilauroyl-sn-glycerol (DLG, incorporated in the liposomes). ATP is converted to ADP as a result of this enzymatic reaction. After the kinase reaction, an ATP-depletion reagent is added to terminate the kinase reaction and deplete any remaining ATP, leaving only ADP. Second, a detection reagent is added to simultaneously convert ADP to ATP and allow the newly synthesized ATP to be converted to light using a coupled luciferase/luciferin reaction.
(§5) Full length DGKα and ζ were expressed in Sf21 insect cells by infecting the cells with the baculovirus stock at MOI of 2. Purification of both enzymes was performed as previously described by Takahashi et al., PeerJ, 2018 (Takahashi, D.; Sakane, F. Expression and purification of human diacylglycerol 5 kinase alpha from baculovirus-infected insect cells for structural studies. PeerJ2018, 6, No. e5449).
(§6) A concentrated liposome solution was prepared in assay buffer without DTT and BSA: 2 mM of DLG in 21 mM of total liposome (2 mM DLG/8 mM PS/11 mM PC). The reaction mixtures contain the assay buffer with a final DLG concentration of 125 uM ATP concentrations of 25 μM (for DGKA assay) or 50 μM (for DGKZ assay). The reactions were started by addition of DGK α and ζ kinases at 4 nM and 2 nM final concentrations, respectively. After 1 hour reaction, the amount of ADP formed was detected with the ADP-Glo kinase assay (Promega) according to the manufacturer instructions. Compounds were added in 11-points dose response, starting at […], 1:3 dilutions, with a final DMSO concentration of 2%. The multidrop combi was used as a liquid handler and luminescence was read with 0.5 s by the envision reader (PE).

The target of test [4] is T3, DGKζ (hDGKzeta(1-928)-N-His) (Homo sapiens, UniProt Q13574).
T3 construct: hDGKzeta(1-928)-N-His; His (N); made in house; host or cells: Sf21 insect cells (baculovirus)
The experiment in a line: In vitro DGK inhibition assay, DGKzeta ADP Glo (in house). Format: biochemical. Particulars: 2 nM DGKζ, 50 μM ATP, 125 uM DLG in liposomes, 1 hour reaction. How it is done:
as §4, §5, §6

Test [5] concerns the target T4, DGK α kinase (Homo sapiens, UniProt P23743).
T4 construct: purchased Reaction Biology Corp. (contract assay service)
As to the kind of experiment: DGKalpha kinase ADP Glo assay run by Reaction Biology Corp. Format: biochemical. To be noted: 2 nM kinase, 50 µM ATP, 500 μM DLG, 10-dose duplicate. The method, then: as §1, §2, §3

In general, IC50 refers to the concentration at which inhibition is half-maximal. The low end stands for greater potency in that assay, the high end for weaker potency in that assay.

T3 sequence (Q13574 whole entry): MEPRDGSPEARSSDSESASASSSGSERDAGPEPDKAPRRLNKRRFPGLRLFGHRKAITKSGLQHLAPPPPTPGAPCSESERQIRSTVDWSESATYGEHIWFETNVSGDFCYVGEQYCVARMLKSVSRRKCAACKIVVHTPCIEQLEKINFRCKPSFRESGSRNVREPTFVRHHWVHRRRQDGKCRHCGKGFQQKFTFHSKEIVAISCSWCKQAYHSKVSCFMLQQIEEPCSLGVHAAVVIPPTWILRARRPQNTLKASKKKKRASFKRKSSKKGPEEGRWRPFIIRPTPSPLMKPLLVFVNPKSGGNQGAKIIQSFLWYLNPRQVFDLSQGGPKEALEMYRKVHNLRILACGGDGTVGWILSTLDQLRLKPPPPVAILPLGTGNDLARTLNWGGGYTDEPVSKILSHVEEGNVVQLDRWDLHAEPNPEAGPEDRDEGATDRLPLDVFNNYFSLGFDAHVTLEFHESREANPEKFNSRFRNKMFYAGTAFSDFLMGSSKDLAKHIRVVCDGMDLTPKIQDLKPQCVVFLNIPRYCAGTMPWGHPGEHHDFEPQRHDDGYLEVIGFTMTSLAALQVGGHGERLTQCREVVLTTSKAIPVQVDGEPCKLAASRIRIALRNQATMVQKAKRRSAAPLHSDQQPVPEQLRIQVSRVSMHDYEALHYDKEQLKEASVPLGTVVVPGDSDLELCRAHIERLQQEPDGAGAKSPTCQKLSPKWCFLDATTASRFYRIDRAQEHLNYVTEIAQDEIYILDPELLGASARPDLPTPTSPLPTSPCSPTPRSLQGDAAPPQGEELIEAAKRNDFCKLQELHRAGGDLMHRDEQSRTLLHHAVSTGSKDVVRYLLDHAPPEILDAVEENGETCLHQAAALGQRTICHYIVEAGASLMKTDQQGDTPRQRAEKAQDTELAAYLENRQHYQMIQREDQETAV
T2 sequence (P23743 whole entry): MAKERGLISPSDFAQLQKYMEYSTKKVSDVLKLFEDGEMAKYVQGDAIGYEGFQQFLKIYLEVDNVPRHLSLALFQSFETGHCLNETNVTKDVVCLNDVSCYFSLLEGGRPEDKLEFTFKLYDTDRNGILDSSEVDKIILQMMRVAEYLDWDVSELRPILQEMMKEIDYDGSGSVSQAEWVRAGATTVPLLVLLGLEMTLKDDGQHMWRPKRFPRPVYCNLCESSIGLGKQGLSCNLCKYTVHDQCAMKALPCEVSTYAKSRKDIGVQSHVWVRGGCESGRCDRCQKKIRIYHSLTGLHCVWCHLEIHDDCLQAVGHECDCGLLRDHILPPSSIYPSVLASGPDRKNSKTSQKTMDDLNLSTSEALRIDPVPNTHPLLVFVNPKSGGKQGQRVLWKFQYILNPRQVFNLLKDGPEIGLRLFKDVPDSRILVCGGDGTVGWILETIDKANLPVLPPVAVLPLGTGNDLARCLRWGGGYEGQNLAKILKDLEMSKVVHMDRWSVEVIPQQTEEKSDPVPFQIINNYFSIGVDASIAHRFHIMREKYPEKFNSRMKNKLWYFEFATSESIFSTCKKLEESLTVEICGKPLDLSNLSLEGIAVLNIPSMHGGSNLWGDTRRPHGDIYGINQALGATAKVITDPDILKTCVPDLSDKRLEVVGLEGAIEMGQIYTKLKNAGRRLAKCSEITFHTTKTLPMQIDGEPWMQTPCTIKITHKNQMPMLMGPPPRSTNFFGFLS
T1 sequence (Q13574 whole entry): as the sequence (Q13574 whole entry) above
T4 sequence (P23743 whole entry): as the sequence (P23743 whole entry) above

As to `CN1CCCC(F)(c2nnc(-c3ccc4c(c3)N(Cc3ccc(-c5noc(C(F)(F)F)n5)cc3)C(=O)[C@@H](N)CS4(=O)=O)o2)C1` (stereo partly drawn) [Example 49, (3R)-3-amino-7-[5-(3-fluoro-1-methyl-3-piperidyl)-1,3,4-oxadiazol-2-yl]-1,1-dioxo-5-[[4-[5-(trifluoromethyl)-1,2,4-oxadiazol-3-yl]phenyl]methyl]-2,3-dihydro-1λ^6,5-benzothiazepin-4-one], the IC50 was 365 nM in test [1], 17800 nM in test [3], 3100 nM in test [4] and 227 nM in test [5]. In addition, in test [2], the “Emax proliferation (% activation)” value is 86 % activation. Further, in test [2], the EC50 is 122 nM.
For `CC(C)(C#N)c1nnc(-c2ccc3c(c2)N(Cc2ccc(-n4cc(OC(F)(F)F)cn4)cc2)C(=O)[C@@H](N)CS3(=O)=O)o1` [Example 138, 2-[5-[(3R)-3-amino-1,1,4-trioxo-5-[[4-[4-(trifluoromethoxy)pyrazol-1-yl]phenyl]methyl]-2,3-dihydro-1λ^6,5-benzothiazepin-7-yl]-1,3,4-oxadiazol-2-yl]-2-methyl-propanenitrile], in test [2], the “Emax proliferation (% activation)” value worked out at 158 % activation and the EC50 worked out at 83.2 nM. Half-maximal inhibition in test [3] (IC50) was put at 657 nM. In test [4], this molecule had an IC50 of 465 nM.
With `CC(C)(C#N)c1nnc(-c2ccc3c(c2)N(Cc2ccc(-c4ccc(OC(F)(F)F)nc4)cc2)C(=O)[C@@H](N)CS3(=O)=O)o1` [Example 137, 2-[5-[(3R)-3-amino-1,1,4-trioxo-5-[[4-[6-(trifluoromethoxy)-3-pyridyl]phenyl]methyl]-2,3-dihydro-1λ^6,5-benzothiazepin-7-yl]-1,3,4-oxadiazol-2-yl]-2-methyl-propanenitrile], in test [2], the “Emax proliferation (% activation)” value is recorded as 124 % activation and the EC50 worked out at 406 nM. The molecule also showed an IC50 in test [3] of 11200 nM. This molecule had an IC50 in test [4] of 660 nM.

For the origin of these results see US20260138976A1 (Hoffmann-La Roche Inc., priority 2022, published 2026).
